Data taken from patent EP3165222A1, “USE OF PHTHALIDE COMPOUND” (Everfront Biotech Inc., priority 2014, dated 2016).
Like-named read-outs stand apart in the source and are kept apart here.

Tests used:
[1] = tested on: Purkinje cells; assay: Immunohistochemistry staining of cerebellar slices of SCA3 mice; assay type: in vivo; details: cerebellum slices; BP 100 or 500 mg/kg/bid, ligustilide 100 mg/kg/bid; sacrificed at 20 and 24 weeks; versus untreated and olive oil groups; Figure 7
Procedure: (§1) The MJD84.2 transgenic mice (i.e., the mice with modified ATXN3 gene) of eight weeks of age were randomly divided into five groups, with six mice in each group. The mice were treated with the following conditions: (1) untreated group; (2) treated with olive oil; (3) treated with 100 mg/kg/bid of BP; (4) treated with 500 mg/kg/bid of BP; (5) treated with 100 mg/kg/bid of ligustilide. Then, the mice were sacrificed at the age of 20 weeks and 24 weeks. Cerebellar slices staining and tissue protein extraction were performed (see Example 5). Whole brain tissue of the mice was fixed overnight with 3.7% formalin and embedded in paraffin. The samples were sectioned (4 µm) by using a Quanto kit (Thermo, USA) and mounted on a microscope slide.

[2] = tested on: ATXN3 protein; assay: In vitro cell test: GFP-ATXN3 protein aggregation/expression in transfected cells by fluorescence microscopy; assay type: cell-based, human; details: pEGFP-C1-Ataxin3Q84 transfected HEK 293T or neural stem cells; 5 µg/ml for 24 hours; versus untreated groups; Figure 1
Procedure: In this experiment, the effects of BP and ligustilide on the protein expression level of SCA3 protein were analyzed. Frist, pEGFP-C1-Ataxin3Q84 plasmid (i.e., a plasmid comprising Ataxin gene with abnormal CAG repeat number (84Q)) containing green fluorescent protein or pEGFP-C1-Ataxin3Q28 plasmid (i.e., a plasmid comprising Ataxin gene with normal CAG repeat number (28Q)) (Addgene company, U.S.) was transfected into human embryonic kidney (HEK) cells 293T (Bioresource Collection and Research Center, Taiwan) or neural stem cells (NSC). The cells were then cultured in a DMEM medium (Dulbecco's modified Eagle's medium, Thermo) containing 10% fetal bovine serum (Gibco), and incubated in an incubator with 5% CO2 at 37°C. Then, the cells were treated with 5 µg/ml BP (A10353, purchased from Alfa Aesar, U.S.; with a purity of 95%) or ligustilide (5393-015M1, purchased from Pharmaron, China) for 24 hours. The protein aggregation of GFP-ATXN3 protein in the cells of each group was observed by a fluorescence microscopy. Wild type cells and cells transfected with green fluorescent protein (GFP) were used as the control group.

[3] = tested on: calbindin; assay: Western blotting of cerebellum tissue of SCA3 mice, anti-calbindin antibody; assay type: in vivo; details: BP 100 or 500 mg/kg/bid, ligustilide 100 mg/kg/bid, versus untreated and olive oil groups, Figure 8
Procedure: as §1
(§2) The cerebellums of the mice sacrificed in example 4 were separated from the whole brain, and the proteins in the cerebellums were extracted. The purified proteins were analyzed by Western blotting assay using an anti-ubiquitin antibody and an anti-calbindin antibody, respectively, to determine the changes in the protein expression level of ubiquitin and calbindin in the cerebellum tissue of SCA3 mice in each group. β-actin was used as an internal control group.

[4] = tested on: MJD84.2 transgenic mice; assay: Local motor test in MJD84.2 transgenic mice (SCA3 mice); assay type: in vivo; details: BP 100 or 500 mg/kg/bid, ligustilide 100 mg/kg/bid, versus untreated group and olive oil group; for total moving distance: Figure 5A; for moving times: Figure 5B; for moving time: Figure 5C
Procedure: (§3) MJD84.2 transgenic mice (i.e., the mice being transfected with ATXN3 gene with human 84 CAG repeat sequence, hereinafter referred to as "SCA3 mice") were used in this experiment. MJD84.2 transgenic mice were an animal model used for studying spinal cerebellar atrophy.
(§4) The MJD84.2 transgenic mice of […] were randomly divided into five groups, each group had six mice. The mice were treated with the following conditions for two weeks: (1) untreated group; (2) treated with olive oil (i.e., only treated with the adjuvant); (3) treated with 100 mg/kg/bid (bis in die) of BP; (4) treated with 500 mg/kg/bid of BP; (5) treated with 100 mg/kg/bid of ligustilide. The wild type mice (WT) was used as a control group. After 2 weeks, local motor and rotarod test were conducted.
Local motor test was performed to test the exercise ability of mice. 10-week-old mice were tested on rotarod once every three weeks. Then, the mice were placed in a transparent acrylic box 2 hours and were free to move. A behavioral test was conducted for 1 hour by using VersaMax 420 (AccuscanInstrumentsInc, USA), and the data was analyzed by statistical methods.

[5] = tested on: MJD84.2 transgenic mice; assay: Rotarod test in MJD84.2 transgenic mice (SCA3 mice); assay type: in vivo; details: BP 100 or 500 mg/kg/bid, ligustilide 100 mg/kg/bid; versus untreated group and olive oil group; Figure 6
Procedure: as §3, §4
Rotarod test was performed to test the balance and grip ability of mice. The mice were given practice two weeks before the first behavioral test. The experiment was conducted using an IITC rotarod (IITC Life Science Inc, USA). 10-week-old mice were tested on a rotarod once every three weeks. The test condition was set as a linear acceleration from 4 to 40 rpm within 300 seconds. The time (sec) that the mice fell from the rotarod (i.e., latency to fall) was recorded. […] After the rotarod test, the body weight of the mice were recorded. […]

[6] = tested on: zebrafish; assay: Behavioral test in zebrafish injected with ATXN3 MO (tail stimulation); assay type: in vivo; details: Figure 3
Procedure: Morpholinos (MO) was produced by modifying the structure of a fragment of DNA, which can block protein translation process of mRNA to inhibit the expression of a target protein. The ATXN3 MO used in this experiment has a sequence of 5'-[…]-3' (SEQ ID NO. : 1), and the standard used in the control group is 5'-[…]-3' (SEQ ID NO. : 2) (hereinafter referred to as "Ct MO"). Before injection, the MO was dissolved in ddH2O, stored at -20°C for used. Zebrafish eggs were micro-injected within about one hour after birth. After 21 to 48 hours post fertilization (hpf), the zebrafish eggs were micro-injected with ATXN3 MO or ATXN3 MO in combination with 250 mg/kg BP, 125 mg/kg BP or 62.5 mg/kg BP. After 48 hours, the fish tails were stimulated by tips, and the number of stimulation causing movement of the fish tails was measured.

[7] = Safe dose test (toxicity of BP to zebrafish, survival rate); details: in vivo, after 48 hours, 28.5°C, Figure 2, read-out: survival rate of the zebrafishes
Procedure: In this experiment, the zebrafishes that were used as the animal models in the experimental group were Tg (HuC:GFP), which is characterized by its primary sensory neurons (Rohon-Beard cells) that can produce fluorescence. The zebrafishes used in the control group were wild type zebrafishes. All of the zebrafishes were provided by TZCAS (Taiwan Zebrafish Core Facility at Academia Sinica, Taiwan) and TZCF (Taiwan Zebrafish Core Facility, Taiwan). First, the toxicity of BP to zebrafish was tested by injecting different dose of BP to zebrafishes. The zebrafishes were then kept at 28.5°C. After 48 hours, the survival rate of the zebrafishes was observed.

[8] = tested on: motor neurons; assay: Confocal microscopy test of motor neurons in zebrafish injected with ATXN3 MO; assay type: in vivo; details: ATXN3 MO in combination with 250 mg/kg BP; after 48 hours; Figure 4
Procedure: Zebrafish eggs were micro-injected with 300 nM/µl ATXN3 MO, 250 mg/kgBP, or ATXN3 MO in combination with 250 mg/kgBP, 125 mg/kg BP or 62.5 mg/kgBP. After 48 hours, the zebrafishes were enclosed in glass slides. The motor neurons in the living body were recorded by a confocal fluorescence microscopy.

[9] = tested on: ubiquitin; assay: Western blotting of cerebellum tissue of SCA3 mice, anti-ubiquitin antibody; assay type: in vivo; details: mice treated with BP, versus untreated and olive oil groups, Figure 9
Procedure: as §1, §2

Row | SMILES | number of Purkinje cells [1] | fluorescent signal of Ataxin3Q84 [2] | protein expression level of calbindin [3] | total moving distance [4] | moving times [4] | moving time [4] | balance and grip ability (latency to fall) [5] | restoring the behavioral ability of the diseased zebrafishes ([6]; 250 mg/kg BP compared with the other BP doses) | amount of stimulation-caused movement of fish tails ([6]; ATXN3 MO in combination with 250, 125 or 62.5 mg/kg BP, after 48 hours, versus ATXN3 MO alone) | survival at 48 h ([7]; 50 mg/kg BP injected) | survival at 48 h ([7]; 250 mg/kg BP injected) | survival at 48 h ([7]; 500 mg/kg BP injected) | number of motor neurons [8] | content of the ubiquitin ubiquitination proteins [9]
1 | CCCC=C1OC(=O)C2=C1CCC=C2 [ligustilide, 3-butylidene-4,5-dihydrophthalide] | significantly higher | significantly lower | significantly higher | higher | higher | higher | better |  |  |  |  |  |  | 
2 | CCCC=C1OC(=O)c2ccccc21 [BP, n-butylidenephthalide] | significantly higher | significantly lower | significantly higher | higher | higher | higher | better | the most obvious effect | restored (i.e., decreased) | > 75% | > 75% | 50% | can maintain the number of motor neurons | significantly higher
